This note sets out measurements from PubChem BioAssay (NCI).

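Five compound concentrations were applied to cells in 96-well plates for 48 hours; endpoints were derived by simple linear interpolation of the resulting dose-response curve. Here, GI50 denotes the concentration required for 50% inhibition of growth. TGI marks complete inhibition of growth.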 A value given as a limit tells only on which side of the number the result lay.

What all share (test): NCI-60 cell line screen, 48 h
Test [1] concerns A549 NSCLC.
Test [2] deals with HT29 colon.
Test [3] has as its system K-562 leukemia.
The test system of test [4] is MALME-3M melanoma.
The subject of test [5] is NCI/ADR-RES ovarian.
The test system of test [6] is OVCAR-4 ovarian.
The test system of test [7] is SK-OV-3 ovarian.
Test [8] has as its system TK-10 renal.
Test [9] deals with UACC-257 melanoma.
The test system of test [10] is UACC-62 melanoma.

As for `COc1cc(-c2oc3c(OC)c(O)c(OC)c(O)c3c(=O)c2OC)cc(OC)c1OC`, the TGI in test [1], in [2], in test [3], in test [4], in [5] and in test [6] was above 100 µM throughout. Further, the TGI in test [7], in test [8], in test [9] and in test [10] was above 100 µM each time.

Take `CO/N=C(/C)COc1ccc2c(c1)oc(=O)c1cc(OC)ccc12`: the GI50 is above 100 µM in test [1]; above 100 µM in test [2]; above 100 µM in test [3]; above 100 µM in [4]; above 100 µM in [5]; 47.1 µM in test [6]. Further, the GI50 in [7], in test [8], in test [9] and in test [10] was above 100 µM in each case. In addition, the TGI in test [1], in test [2], in [3], in [4], in [5] and in test [6] was above 100 µM throughout. Also, the TGI in test [7], in [8], in test [9] and in [10] was above 100 µM throughout.

As for `COc1cc(/C=C2\CC3C4CCC5=CC(=O)CC[C@]5(C)C4CC[C@]3(C)C2=O)ccc1OCCN1CCCC1` (stereo not given in full), the GI50 in test [1] is 4.45 µM; in test [2] it was 2.5 µM; in test [3], 0.489 µM; in test [4], 0.645 µM; in test [5] it was 2.45 µM; in test [6], 3.94 µM. The GI50 in test [7] is 4.56 µM; in test [8] it was 1.51 µM; in [9] it was 2.5 µM; in test [10], 2.06 µM. Moreover, the TGI in [1] was above 100 µM; in test [2] it was above 28.5 µM; in test [3], 1.53 µM; in [4], 1.93 µM; in test [5], 6.51 µM; in test [6], 15.1 µM. In addition, the TGI was 16.8 µM in [7], 3.92 µM in test [8], 6.15 µM in [9] and 5.02 µM in [10].

Take `CCN1CCN(Cc2ccc(Nc3ncc(F)c(-c4cc(F)c5nc(C)n(C(C)C)c5c4)n3)nc2)CC1`: the GI50 in test [1] was 0.411 µM; in test [2], 0.268 µM; in test [3] it was 5.85 µM; in test [4], 0.0557 µM; in [5] it was 10.4 µM; in test [6] it was 6.49 µM. Further, the GI50 in [7] is 3.22 µM; in test [8], 0.029 µM; in [9], 5.45 µM; in [10], 6.39 µM. Moreover, the TGI stood at 11.9 µM in test [1]; 10.8 µM in test [2]; 21 µM in test [3]; 10.5 µM in test [4]; 26.2 µM in [5]; 16.2 µM in test [6]. Besides, the TGI was determined as 11.7 µM in [7], 8.63 µM in test [8], 7.97 µM in test [9] and 14.2 µM in test [10].

As for `Cc1nc2ccc(-n3ncc(C(=O)c4cc5ccccc5[nH]4)c3N)cc2[nH]1`, the GI50 was 8.46 µM in [1]; 5.13 µM in [2]; 3.07 µM in test [3]; 13.9 µM in [4]; 11.9 µM in test [5]; 16 µM in test [6]. The GI50 in test [7] was 14 µM; in [8] it was 18.4 µM; in test [9], 26.6 µM; in [10] it was 4.24 µM. Besides, the TGI was above 100 µM in test [1]; 66.9 µM in [2]; above 100 µM in test [3]; 83.1 µM in test [4]; 80.2 µM in test [5]; above 100 µM in test [6]. Further, the TGI in [7] is above 100 µM; in test [8], above 100 µM; in [9] it was above 100 µM; in test [10], 24.9 µM.

Regarding `CCOC(=O)c1c(C)n([O-])c2cc(F)c(F)cc2[n+]1=O`, the GI50 in [1] is 6.78 µM; in [2], 0.516 µM; in test [3], 0.697 µM; in [4], 0.717 µM; in test [5] it was 0.432 µM; in [6] it was 1.72 µM. Further, the GI50 in test [7] is 1.93 µM; in [8], 17.4 µM; in test [9], 1.7 µM; in test [10], 1.47 µM. The TGI is 26 µM in test [1]; 3.19 µM in test [2]; above 20.4 µM in [3]; 1.83 µM in test [4]; 1.98 µM in test [5]; 3.92 µM in [6]. The TGI in test [7] amounted to 3.48 µM; in [8], 32.5 µM; in [9] it was 3.69 µM; in test [10], 2.91 µM.

Consider `Clc1nc(Cl)c2ncn(-c3ccccc3)c2n1`, for which the GI50 in [1] is 12.9 µM; in test [2] it was 3.87 µM; in test [3], 2.61 µM; in test [4], 2.01 µM; in [5] it was 1.85 µM; in [6], 10.5 µM. The GI50 is 12.5 µM in test [7], 7.46 µM in test [8], 6.86 µM in test [9] and 11.3 µM in [10]. Besides, the TGI in test [1] worked out at 29.8 µM; in [2], 13.5 µM; in test [3] it was 7.05 µM; in [4], 7.12 µM; in [5], 3.55 µM; in [6], 24.5 µM. Moreover, the TGI in [7] turned out to be 25 µM; in [8] it was 20.9 µM; in test [9] it was 20.2 µM; in [10] it was 25.3 µM.

For the molecule `CCOc1cc(Cl)c(C(C)NC(=O)c2cccc(OC)c2)cc1OCC` (stereo not given), the GI50 in test [1] is 8.59 µM; in test [2] it was 4.23 µM; in test [3] it was 3.9 µM; in [4], 9.42 µM; in [5], 4.18 µM; in [6] it was 17.9 µM. Further, the GI50 in test [7] is 15.6 µM; in test [8], 28.6 µM; in [9] it was 37 µM; in [10] it was 8.81 µM. In addition, the TGI in test [1] was above 100 µM; in test [2] it was 44.6 µM; in test [3] it was above 100 µM; in [4] it was above 100 µM; in [5], above 100 µM; in [6] it was 99.4 µM. The TGI in test [7], in [8], in test [9] and in [10] was above 100 µM each time.

`Cc1cc(O)ccc1C1(c2ccc(O)cc2C)OC(=O)c2ccccc21`: the GI50 was 20.8 µM in [1]; 19.9 µM in test [2]; 28 µM in test [3]; 17.9 µM in [4]; 21.1 µM in test [5]; 16.4 µM in test [6]. The GI50 in test [7] is 17.7 µM; in [8], 17 µM; in test [9], 23.8 µM; in [10] it was 18 µM. In addition, the TGI is 37 µM in test [1]; 35.5 µM in test [2]; above 100 µM in test [3]; 37.9 µM in test [4]; 49.6 µM in [5]; 30.8 µM in [6]. For the same molecule, the TGI was found to be 32.8 µM in test [7], 30.8 µM in test [8], 46 µM in test [9] and 35.9 µM in test [10].

With `CC(C)n1cc(-c2ccc3c(c2)N(C)CC3)c2c(NS(=O)(=O)c3ccn(C)n3)ccnc21`, the GI50 in [1] is 44 µM; in test [2] it was 71.9 µM; in [3] it was 79.9 µM; in test [4], above 100 µM; in [5], 49.5 µM; in [6], 52.5 µM. Besides, the GI50 in test [7] was above 100 µM; in [8], above 100 µM; in [9], above 100 µM; in test [10], 36.7 µM. Besides, the TGI in test [1], in test [2], in test [3], in test [4], in test [5] and in [6] was above 100 µM throughout. For the same molecule, the TGI in test [7], in test [8], in [9] and in test [10] was above 100 µM throughout.

Regarding `COc1ccc(C2=C(c3ccccc3)C(=O)N3CCCC3C2)cc1` (stereo not given), the GI50 is 0.195 µM in test [1]; 0.233 µM in [2]; 0.0893 µM in test [3]; above 100 µM in test [4]; 8.85 µM in test [5]; 55.2 µM in [6]. The GI50 in [7] was above 100 µM; in test [8], 12.9 µM; in test [9], above 49 µM; in test [10] it was 1.92 µM. Besides, the TGI in [1], in [2], in test [3], in test [4], in test [5] and in [6] was above 100 µM each time. For the same molecule, the TGI in test [7], in test [8], in test [9] and in test [10] was above 100 µM each time.

Regarding `COc1cc2c(Nc3ccc(-c4ccc(N)cc4)cc3)ncnc2c(OC)c1OC`, the GI50 in test [1] was 2.68 µM; in [2], 8.02 µM; in [3] it was 0.521 µM; in [4], 22.4 µM; in [5] it was 4.54 µM; in [6] it was 6.01 µM. Further, the GI50 in [7] was 46.5 µM; in test [8] it was 21 µM; in test [9], 4.58 µM; in test [10] it was 0.522 µM. Moreover, the TGI is above 100 µM in [1]; above 81.7 µM in test [2]; above 100 µM in [3]; above 92.2 µM in test [4]; above 100 µM in test [5]; above 100 µM in [6]. Besides, the TGI in [7] is above 100 µM; in test [8] it was above 100 µM; in [9], above 100 µM; in test [10], above 35.1 µM.

Regarding `COC(=O)C1c2cc3c(c(O)c2CCC1(C)O)C(=O)c1c(O)cc2c(c1C3=O)OC1OC2(C)C(O)C(N(C)C)C1O` (stereo not given), the TGI was 0.916 µM in test [1]; 1.29 µM in [2]; 1.03 µM in test [3]; 1.17 µM in test [4]; 3.54 µM in test [5]; 1.45 µM in [6]. For the same molecule, the TGI in [7] was found to be 15 µM; in test [8], 1.66 µM; in test [9], 0.739 µM; in [10], 1.91 µM.

`CCOC(=O)C1=C(C)NC2SC(=O)/C(=C\c3cccc(Cl)c3)N2C1c1ccccc1` (stereo not given): the GI50 in test [1] is above 100 µM; in test [2], above 100 µM; in [3], above 100 µM; in test [4], 28.3 µM; in [5], above 100 µM; in [6], 84.3 µM. The GI50 in test [7], in test [8], in test [9] and in [10] was above 100 µM throughout. For the same molecule, the TGI in test [1], in [2], in test [3], in [4], in [5] and in test [6] was above 100 µM throughout. Besides, the TGI in [7], in [8], in test [9] and in test [10] was above 100 µM throughout.

Consider `CC(=O)OC1C(O)C(C)OC(OC2C(OC(=O)C3CCC4C(C3)OC3(CC(OC(=O)/C=C/c5ccccc5)C(C)CO3)C43CO3)OC(C)C(O)C2OC(C)=O)C1O` (stereo not given), for which the TGI is 0.333 µM in test [1]; 0.0473 µM in test [2]; 0.241 µM in test [3]; below 0.0185 µM in test [4]; above 2.5 µM in test [5]; 0.051 µM in [6]. In addition, the TGI in test [7] amounted to 0.0928 µM; in test [8], 0.225 µM; in test [9], 0.0811 µM; in [10] it was 0.0382 µM.

Take `Cn1cc(-c2csc(-c3ccccc3)n2)c2cccnc21`: the GI50 was 16.9 µM in [1]; 14.2 µM in test [2]; 13.9 µM in test [3]; 16.4 µM in test [4]; 19.3 µM in test [5]; 23.3 µM in test [6]. The GI50 in test [7] is 18.7 µM; in test [8], 17.9 µM; in test [9], 21.1 µM; in test [10] it was 12.3 µM. The TGI in [1] amounted to 38 µM; in [2], 27.2 µM; in [3], 48.9 µM; in test [4], 42.6 µM; in [5], 49.6 µM; in [6], 71.4 µM. In addition, the TGI in test [7] is 43.3 µM; in test [8] it was 39.1 µM; in test [9] it was 44.4 µM; in test [10], 25.5 µM.
